Assay results published in patent US8252572B2, “Use of islet glucose-6-phosphatase related protein as a diagnostic tool and therapeutic target for autoimmune diabetes” (priority 2003, dated 2012).

How the values were obtained:
[1] = system: NY8.3 CD8 T-cell clone; conditions: cited from earlier work
[2] = system: CD8 positive cells from the whole pancreas of NOD mice; test: MHC class I tetramer binding to pancreatic mononuclear cells (FACS); type: cell-based, NOD mouse
Excerpt: Cells were isolated from collagenase digested mouse pancreas by gradient centrifugation and subject to 3 color FACS analysis using antibodies to CD45, CD8 and PE-streptavidin conjugated tetramers carrying peptides derived from IGRP. The gated (R1) population were 95% CD45 positive and composed of 12.5% CD8 cells.
MHC class I tetramers were generated using the NIH tetramer facility. These were loaded with a series of peptides including the native mouse IGRP peptide (VYLKTNVFL (SEQ ID NO.: 6); peptide C, FIG. 4) corresponding to the NRP-V7 mimeotope (KYNKANVFL (SEQ ID NO.: 7)) that stimulates the NY8.3 CD8 T-cell clone. A procedure was developed for the isolation of mononuclear cells from the whole pancreas of NOD mice yielding approximately 0.5-1×10^6 CD45 positive cells (lymphocytes) per mouse (12-16 wk females) for tetramer binding assays (FIG. 4). The lymphocyte population contained 10-15% CD8 positive cells of which 8% bound the native peptide tetramer. These assays confirm the remarkable finding that a major proportion of the CD8 cells in the NOD pancreas target one specific IGRP epitope. The procedure developed here represents a technical advance on previous tetramer studies of activated NRP reactive T-cell in NOD mice which required up to 40 animals for a single experiment and amplification of islet-derived T-cells for 7-9 days in the presence of IL-2.

[3] = system: mixed lymphocyte preparations of pre-diabetic 12 week old female NOD mice; test: T-cell proliferative responses to recombinant antigens (3H thymidine); type: cell-based, NOD mouse; conditions: for T-cell proliferative response (in words): recombinant antigens as β-galactosidase fusion proteins, NOD lymphocytes
Experimental: Lymphocytes prepared from pancreatic draining lymph nodes were mixed with splenocytes from the same animal and incubated for 3 days (500×10^3 cells) in Click's medium with […] NOD mouse serum 50 μM mercaptoethanol and the indicated recombinant antigens that were generated as fusion proteins with β-galactosidase in the pUEX vector. Cultures were pulsed for 16 h with ^3H thymidine prior to harvest.
T-cell proliferative responses to recombinant IGRP (3-100 μg/ml) were observed from mixed lymphocyte preparations of pre-diabetic 12 week old female NOD mice (SImax=10).

## KYNKANVFL (SEQ ID NO.: 7) (artificial Mus sp.) [NRP-V7, mimeotope that stimulates the NY8.3 CD8 T-cell clone]
[1]
  stimulation of T-cell clone (in words): stimulates

## VYLKTNVFL (SEQ ID NO.: 6) (listed as Mus sp.) [peptide C, native mouse IGRP peptide, cognate peptide of the NY8.3 clone]
[2]; K^d tetramer loaded with peptide, pancreatic lymphocytes of 12-16 wk female NOD mice
  proportion of CD8 positive cells that bound the tetramer: 8%
[2]; PE-streptavidin conjugated tetramers carrying peptides derived from IGRP, 3 color FACS, FIG. 4
  tetramer staining of pancreatic CD8 cells (in words): significant proportion bound

## β-galactosidase: the fusion partner, used as control antigen [reference compound]
[3]
  T-cell proliferative response (in words): minimal response

B1: recombinant IGRP: recombinant islet glucose-6-phosphatase related protein generated as fusion protein with β-galactosidase in the pUEX vector (protein, UniProt Q9Z186 1-355, looked up)
Glucose-6-phosphatase 2: MDFLHRSGVLIIHHLQEDYRTYYGFLNFMSNVGDPRNIFSIYFPLWFQLNQNVGTKMIWVAVIGDWFNLIFKWILFGHRPYWWIQETEIYPNHSSPCLEQFPTTCETGPGSPSGHAMGSSCVWYVMVTAALSYTISRMEESSVTLHRLTWSFLWSVFWLIQISVCISRVFIATHFPHQVILGVIGGMLVAEAFEHTPGVHMASLSVYLKTNVFLFLFALGFYLLLRLFGIDLLWSVPIAKKWCANPDWIHIDSTPFAGLVRNLGVLFGLGFAINSEMFLRSCQGENGTKPSFRLLCALTSLTTMQLYRFIKIPTHAEPLFYLLSFCKSASIPLMVVALIPYCVHMLMRPGDKKTK
[3]; recombinant IGRP 3-100 μg/ml, β-galactosidase fusion protein, 3 days culture, 16 h 3H thymidine pulse
  T-cell proliferative response, SImax: 10

B2: G6Pase: equivalent β-galactosidase fusion construct with liver glucose-6-phosphatase (protein, UniProt P35575 1-357, looked up)
Glucose-6-phosphatase …: MEEGMNVLHDFGIQSTHYLQVNYQDSQDWFILVSVIADLRNAFYVLFPIWFHLQEAVGIKLLWVAVIGDWLNLVFKWILFGQRPYWWVLDTDYYSNTSVPLIKQFPVTCETGPGSPSGHAMGTAGVYYVMVTSTLSIFQGKIKPTYRFRCLNVILWLGFWAVQLNVCLSRIYLAAHFPHQVVAGVLSGIAVAETFSHIHSIYNASLKKYFLITFFLFSFAIGFYLLLKGLGVDLLWTLEKAQRWCEQPEWVHIDTTPFASLLKNLGTLFGLGLALNSSMYRESCKGKLSKWLPFRLSSIVASLVLLHVFDSLKPPSQVELVFYVLSFCKSAVVPLASVSVIPYCLAQVLGQPHKKSL
[3]
  T-cell proliferative response (in words): minimal response

B3: UGRP: equivalent construct with ubiquitously expressed G6Pase related protein (protein, UniProt Q6NSQ9 1-346, looked up)
Glucose-6-phosphatase 3: MESTLSAGIIMAEALQNRLPGLENMWLWVTFLGDPKNLFQFCFPAAYYASRRLGISVLWITFIAEWLNLVFKWFLFGDRPFWWVHESGYSTQTPIQIHQFPSSCETGPGSPSGHCMITGAALWPVMTAISSQVASRSRSPWVRVIPGLAYCTFLLAVGLSRVFLLAHFPHQVLGGLIVGAALGWLMSPRVPMERELSFYGLTALALMLGASLMYWTLFTLGLDLSWSINLASKWCERPEWVHMDSRPFASLSRDSGSALGLGIALHTPCYAQIRRAHLGNGQKIACFVLAMGLLVFLEWLGYPPQISLFYIFNFLKYTLWPCLVLALVPWVVHTLSDQEAPPIRSS
[3]
  T-cell proliferative response (in words): minimal response
